In patent publication US20240299568A1, “BONE-SPECIFIC DELIVERY OF POLYPEPTIDES” (William Marsh Rice University, priority 2021, published 2024):

Test system: MDA-MB-361 cells
Experiment: MDA-MB-361 bone micrometastasis xenograft (IIA injection)
[1] = significance vs PBS group, end of experiment

SMILES: NCCCC(O)(P(=O)(O)O)P(=O)(O)O [ALN, Alendronate]
- bone mass loss of femurs (microCT) (82 days after tumor implantation): significant losses of bone mass
- development of micrometastases / lesions (BLI imaging) (ALN 10 μg/kg, Tras, Tras-ALN 1 mg/kg, retro-orbital twice a week): accumulated rapidly
- tumor burden, histomorphometric analysis of tibiae and femurs (H&E bone sections): high tumor burdens
- BLI Fold-increase (significance vs PBS group, BLI of day 87/BLI of day 6, two-way ANOVA): NS (NS represents P > 0.05)
- Osteoclast activity Osteoclast number (significance vs PBS group, TRAP-stained tibia/femur sections, end of experiment): * (* P < 0.05)
- Osteoclast activity Serum Calcium [1]: NS (NS represents P > 0.05)
- Osteoclast activity Serum TRACP 5b [1]: NS (NS represents P > 0.05)
- Survival (significance vs PBS group, endpoint BLI intensity over 10^7, log-rank test): NS (NS represents P > 0.05)
- BLI Progression (significance vs PBS group, whole-body BLI over the course of the experiment, two-way ANOVA): NS (NS represents P > 0.05)
